Reference: patent US20250282812A1, “ANTIVIRAL NUCLEOSIDE ANALOGUE, AND PHARMACEUTICAL COMPOSITION AND USE THEREOF” (SHANGHAI INSTITUTE OF MATERIA MEDICA , CHINESE ACADEMY OF …, priority 2022, published 2025)
pEC50: −log10 of the molar value. Converted amounts (≈) assume the structure as drawn.

Columns and labels:
[1] = Cytotoxicity in HEp-2 cells (CCK8); conditions: human
[2] = test system: influenza virus (IFV) A/California/07/2009 (H1N1) pdm09 strain; assay: In vitro activity against influenza virus (CPE, CCK8, MDCK cells); format: cell-based; conditions: 120 h, read-out: IFV (MDCK) EC50
[3] = Stability test of compounds in solutions at different pH values
[4] = test system: respiratory syncytial virus (RSV) A long strain; assay: In vitro activity against respiratory syncytial virus (CPE, CCK8, HEp-2 cells); format: cell-based; conditions: human respiratory syncytial virus, 120 h, MOI=0.02, 5 days
SFTSV-Nluc [5] = assay: microbe, parasite or virus in culture; format: cell-based, severe fever with thrombocytopenia syndrome virus (SFTSV); conditions: Severe fever with thrombocytopenia syndrome virus, Vero, 48 h; for inhibition at 10 µM: read-out: Inhibition rate (10 μM)
in vitro = conditions: dog
[6] = Solubility of compounds in water; conditions: thermodynamic from solid
[7] = test system: influenza virus Influenza A/PR/8/34 (PR8); assay: In vivo efficacy for influenza virus in mice; parameters: species or system Balb/C mice; conditions: for body weight after 4 days of infection compared with the initial body weight: intragastric once daily Day 0-3, X219 hydrochloride 10, 20 and 30 mpk, favipiravir 200 mpk
[8] = test system: respiratory syncytial virus (RSV A2); assay: In vivo efficacy for respiratory syncytial virus (RSV) in mice
SFTSV-Nluc [9] = test system: SFTSV-Nluc; parameters: species or system A129 mice; conditions: mouse
[10] = buffered saline solution pH 4.0, 3 h
[11] = buffered saline solution pH 4.0, 6 h
[12] = buffered saline solution pH 4.0, 9 h
[13] = buffered saline solution pH 4.0, 12 h
[14] = buffered saline solution pH 4.0, 15 h
[15] = buffered saline solution pH 4.0, 18 h
[16] = buffered saline solution pH 4.0, 21 h
[17] = buffered saline solution pH 4.0, 24 h
[18] = buffered saline solution pH 6.8, 3 h
[19] = buffered saline solution pH 6.8, 6 h
[20] = buffered saline solution pH 6.8, 9 h
[21] = buffered saline solution pH 6.8, 12 h
[22] = buffered saline solution pH 6.8, 15 h
[23] = buffered saline solution pH 6.8, 18 h
[24] = buffered saline solution pH 6.8, 21 h
[25] = buffered saline solution pH 6.8, 24 h

| Compound | CC50 at 5 days [1] [nM] | pEC50 [2] | Content reduction (%) [3, 10] [%] | Content reduction (%) [3, 11] [%] | Content reduction (%) [3, 12] [%] | Content reduction (%) [3, 13] [%] | Content reduction (%) [3, 14] [%] | Content reduction (%) [3, 15] [%] | Content reduction (%) [3, 16] [%] | Content reduction (%) [3, 17] [%] | Content reduction (%) [3, 18] [%] | Content reduction (%) [3, 19] [%] | Content reduction (%) [3, 20] [%] | Content reduction (%) [3, 21] [%] | Content reduction (%) [3, 22] [%] | Content reduction (%) [3, 23] [%] | Content reduction (%) [3, 24] [%] | pEC50 [4] | pEC50 (SFTSV-Nluc [5]) | solubility at 15 min [6] [µg/mL] | also measured |
| --- | --- | --- | --- | --- | --- | --- | --- | --- | --- | --- | --- | --- | --- | --- | --- | --- | --- | --- | --- | --- | --- |
| CC(C)C(=O)OCn1c(=O)ccn([C@@H]2O[C@](F)(COC(=O)C(C)C)[C@@H](O)[C@H]2O)c1=O [Compound X51] | > 10000 | > 6.43 | 1.6 | 2.5 | 3.1 | 3.4 | 3.9 | 4.6 | 5.2 | 5.6 | 1.1 | 2.0 | 3.0 | 3.8 | 4.7 | 5.6 | 6.5 | 5.67 | 6.37 |  | Content reduction (%) [3, 25]: 7.4%; inhibition at 10 µM (SFTSV-Nluc [5]): 94.1%; CC50 (in vitro): > 10000 nM |
| CC(C)C(=O)OC[C@@]1(F)O[C@@H](n2ccc(=O)n(COC(=O)C3CCCCC3)c2=O)[C@H](O)[C@@H]1O [Compound X55] | > 10000 | > 6.43 | 2.4 | 4.9 | 6.9 | 9.0 | 10.8 | 12.7 | 14.2 | 15.4 | 1.0 | 2.3 | 3.3 | 4.4 | 5.4 | 6.4 | 7.7 | 5.79 | 5.98 |  | inhibition at 10 µM (SFTSV-Nluc [5]): 93.6%; CC50 (in vitro): > 10000 nM |
| CC(C)C(=O)OC[C@@]1(F)O[C@@H](n2ccc(=O)n(COC(=O)c3cccnc3)c2=O)[C@H](OC(=O)C(C)C)[C@@H]1OC(=O)C(C)C [Compound X206] | > 10000 | 6.42 | 0.01 | 0.03 | 0.02 | 0.03 | 0.03 | 0.01 | 0.03 | 0.0 | 1.93 | 3.09 | 3.84 | 4.06 | 5.72 | 6.34 | 7.28 | 5.61 | 5.76 |  | Content reduction (%) [3, 25]: 8.16%; inhibition at 10 µM (SFTSV-Nluc [5]): 93.7%; CC50 (in vitro): > 10000 nM |
| CC(=O)OC[C@@]1(F)O[C@@H](n2ccc(=O)[nH]c2=O)[C@H](OC(C)=O)[C@@H]1OC(C)=O [Compound X219-1] |  |  |  |  |  |  |  |  |  |  |  |  |  |  |  |  |  |  |  | 150 (≈ 386 µM) |  |
| CC(=O)OC[C@@]1(F)O[C@@H](n2ccc(=O)n(COC(=O)c3cccnc3)c2=O)[C@H](OC(C)=O)[C@@H]1OC(C)=O [Compound X219] | > 10000 | 5.41 | 0.22 | 0.34 | 0.44 | 0.62 | 0.70 | 0.78 | 0.93 | 1.02 | 1.06 | 1.86 | 2.92 | 3.96 | 5.27 | 6.01 | 7.02 | 5.59 | 5.47 | 700 (≈ 1340 µM) | Content reduction (%) [3, 25]: 8.38%; inhibition at 10 µM (SFTSV-Nluc [5]): 91.7%; CC50 (in vitro): > 10000 nM |
| CC(=O)O[C@H]1[C@H](n2ccc(=O)[nH]c2=O)O[C@](F)(COC(=O)C(C)C)[C@H]1OC(C)=O [Compound X265-3] |  |  |  |  |  |  |  |  |  |  |  |  |  |  |  |  |  |  |  | 100 (≈ 240 µM) |  |
| CC(C)C(=O)OC[C@@]1(F)O[C@@H](n2ccc(=O)n(COC(=O)[C@@H]3CCCN3C)c2=O)[C@H](OC(=O)C(C)C)[C@@H]1OC(=O)C(C)C [Compound X267] | > 10000 | 6.30 |  |  |  |  |  |  |  |  |  |  |  |  |  |  |  | 6.06 | 5.70 |  | inhibition at 10 µM (SFTSV-Nluc [5]): 94.1%; CC50 (in vitro): > 10000 nM |
| Br.CC(=O)OC[C@@]1(F)O[C@@H](n2ccc(=O)n(COC(=O)c3cccnc3)c2=O)[C@H](OC(C)=O)[C@@H]1OC(C)=O [X219 hydrobromide] |  |  |  |  |  |  |  |  |  |  |  |  |  |  |  |  |  |  |  | 17600 |  |
| CC(=O)OC[C@@]1(F)O[C@@H](n2ccc(=O)n(COC(=O)c3cccnc3)c2=O)[C@H](OC(C)=O)[C@@H]1OC(C)=O.Cl [X219 hydrochloride] |  |  | 0.24 | 0.28 | 0.34 | 0.55 | 0.64 | 0.72 | 0.73 | 0.87 | 0.98 | 2.03 | 3.09 | 4.10 | 5.13 | 6.13 | 7.07 |  |  | 4740 | pulmonary viral load compared with the PR8+vehicle group ([7]; […], X219 hydrochloride 10, 20, 30 mpk intragastric once daily, Day 4): significantly reduced; body weight after 4 days of infection compared with the initial body weight ([7]; […]): did not change significantly; reduction of pulmonary viral load compared with the PR8+vehicle group ([7]; dose 20 mg/kg intragastric once daily, Day 4): greater than 4 log10; reduction of pulmonary viral load compared with the PR8+vehicle group ([7]; dose 30 mg/kg intragastric once daily, Day 4): greater than 4 log10; levels of inflammatory factors (IL-6, IL-8, IL-1B, TNF-α, ISG-15, and TNF-1B) in the lungs compared with the PR8+vehicle group ([7]; lung tissue, Day 4): significantly lower; inhibitory effect on virus compared with the positive drug favipiravir (200 mpk) ([7]; pulmonary viral load, Day 4): significantly better; Content reduction (%) [3, 25]: 8.02%; reduction in the pulmonary viral load compared with the vehicle group ([8]; 20 mpk intragastric once daily, Day 4): about 0.7 log10; change in the body weight ([8]; RSV A2-infected BALB/C mice, X219 hydrochloride 20 mpk or X28-1 10 mpk intragastric once daily): began to show an increase in the body weight on Day 3 |
| Br.CC(=O)O[C@H]1[C@H](n2ccc(=O)n(COC(=O)c3cccnc3)c2=O)O[C@](F)(COC(=O)C(C)C)[C@H]1OC(C)=O [X265 hydrobromide] |  |  |  |  |  |  |  |  |  |  |  |  |  |  |  |  |  |  |  | 8050 |  |
| CC(=O)O[C@H]1[C@H](n2ccc(=O)n(COC(=O)c3cccnc3)c2=O)O[C@](F)(COC(=O)C(C)C)[C@H]1OC(C)=O.Cl [X265 hydrochloride] |  |  |  |  |  |  |  |  |  |  |  |  |  |  |  |  |  |  |  | 19500 |  |
| NC(=O)c1nc(F)c[nH]c1=O [favipiravir, reference compound] |  |  |  |  |  |  |  |  |  |  |  |  |  |  |  |  |  |  |  |  | body weight after 4 days of infection compared with the initial body weight ([7]; […]): did not change significantly; in vivo fluorescence imaging, fluorescence intensity on ventral and dorsal side (SFTSV-Nluc [9]): weak fluorescence intensity |
